The numbers were not newly measured in patent US8846104B2, “Pharmaceutical compositions for the deterrence and/or prevention of abuse” (priority 2006, dated 2014), which cites them from elsewhere.

For the data set, the system named is mu over delta sites.

Turning to `O=C1CC[C@@]2(O)[C@H]3Cc4ccc(O)c5c4[C@@]2(CCN3CC2CC2)[C@H]1O5` [naltrexone], the “blocking action, site preference” value is recorded as “strong preferential blocking action against mu over delta sites”.
